From US5494803A, “Immunodiagnostic assay using liposomes carrying labels thereof on outer liposome surface” (North Carolina State University, priority 1994, dated 1996)

Experiments:
[1] = biological target: anti-biotin antibody (ABA); test: C^14-biotin adsorption to antibody-coated PMMA slides (radioimmunoassay isotherm, Langmuir fit); format: binding
Method: The adsorption of biotin to the antibody-coated PMMA surface was studied by exposing the surfaces to C^14 -labeled biotin, washing the slides, and determining the amount of radioactivity remaining on the solid support at different initial concentrations of biotin in the bulk solution. Four PMMA slides (1.5 cm×1.5 cm) coated with antibody, as described above, were incubated in 10 ml of C^14 -biotin PBS solutions in the concentration range from 10^-8 to 10^-4 M. After a ninety minute exposure, the slides were dipped quickly in 200 ml of deionized water to remove unbound C^14 -biotin from the surface. The radioactivity of the slides was determined by scintillation counting. […] As a control, the non-specific adsorption of C^14 -biotin to PMMA alone and to BSA-covered PMMA was tested the same way, using a C^14 -biotin concentration of 10^-4 M.
The ability of the antibody-covered surface to bind biotin based on the results of radioimmunoassays is indicated by the isotherm shown in FIG. 3. The number of moles of biotin bound per unit area of surface is shown as a function of the initial concentration of biotin to which the surface was exposed. […] Assuming that each antibody molecule adsorbed to the surface can bind two biotin molecules, this corresponds to 0.88×10^-12 moles of active ABA/cm^2. […]
The quantity av is the ratio (A/V) which equals 1.88 cm^-1 in these experiments. […]

[2] = tested on: anti-biotin antibody (ABA)
Method: The adsorption of fluorescent biotin-conjugated liposomes and FITC-Biotin to the surface of the PMMA cuvettes was studied by measuring the amount of fluorescence remaining on the surface of the cuvette after exposure to a known concentration of fluorescent species and a washing step with PBS. One milliliter of solution containing fluorescent species was injected into the inlet of the cuvette 27 with a syringe, and the solution was allowed to stand in the cuvette for either half an hour or an hour, depending on the experiment. Unbound fluorescent molecules were then washed from the cuvette by pumping PBS with a peristaltic pump at a flow rate of 1 /min. After washing, the shutter 22 on the laser 21 was opened for a few seconds, until the digital reading on the photomultiplier tube counter 30 stabilized. This was recorded as the fluorescent signal in kilo-counts per second (KCPS) coming from the interface. […] This was done when it was necessary to investigate the role of the washing step in reducing the measured fluorescence signal. […]
The maximum signal obtained for adsorbed vesicles, at very high molar concentrations of liposomes, is approximately 1250 KCPS. The quantity λL is estimated by taking the measured fluorescence at a given set of concentrations, and dividing by the maximum signal value for full surface coverage.

Anti-Biotin Antibody = conditions: half-hour exposure, ten-minute PBS wash
Method: PMMA cuvettes were cleaned by sonication for twelve hours in RBS solution, followed by sonication in deionized water for twenty-four hours. The cuvettes were incubated in 0.2 ml of 40 μg/ml of anti-biotin antibody (ABA) solution in PBS for two hours at room temperature and rinsed with 0.4 ml PBS twice to remove unbound antibody. The cuvettes were then incubated in 0.2 ml of 3 weight % BSA solution in PBS as a blocking agent for one hour at room temperature, and rinsed twice with 0.4 ml of PBS. […]
A manual shutter 22 was attached to the laser so that essentially no light would reach the sample when the shutter was closed. […] The emitted fluorescence was detected by a photomultiplier tube 29 (Hamamatsu Co., Hamamatsu, Japan). A 520 nm filter 28 was placed on top of the tube so that only the emitted light from fluorescein would be measured. The output from the photomultiplier 29 was sent to a preamplifier, not shown, (Model C716, Hamamatsu) and recorded using a digital photon counter 30 (Model C1230, Hamamatsu). […]
The adsorption of fluorescent biotin-conjugated liposomes and FITC-Biotin to the surface of the PMMA cuvettes was studied by measuring the amount of fluorescence remaining on the surface of the cuvette after exposure to a known concentration of fluorescent species and a washing step with PBS. […]

Row | Compound | Kd ([1]; Langmuir isotherm best fit, PMMA coated with ABA, blocked with BSA, PBS, read-out: equilibrium binding constant K (KB) of biotin on adsorbed ABA (converted)) | saturation level of biotin bound per unit area of surface ([1]; biotin concentrations greater than 10^-4 M) | free biotin concentration at which the decrease in fluorescence commences (experimental) ([2]; liposomes 0.01 or 0.03 mg/ml) | free biotin concentration at which fluorescence should decrease significantly (simple Langmuir model) ([2]; predicted from KB and KL) | association constant of FITC-Biotin to ABA (in words) (Anti-Biotin Antibody)
1 | O=C(O)CCCC[C@@H]1SC[C@@H]2NC(=O)N[C@@H]21 [biotin] | 400 nM | approximately 1.8×10^-12 moles of biotin/cm^2 | approximately 2×10^-5 M | approximately 4×10^-7 M | –
2 | fluorescein isothiocyanate-biotin [FITC-Biotin] | – | – | – | – | very low association constant
